Measured values published in publication PMC11408123, “Deciphering the SAM- and metal-dependent mechanism of O-methyltransferases in cystargolide and belactosin biosynthesis: A structure–activity relationship study” (The Journal of Biological Chemistry, 2024).

Columns and labels:
CysG^ΔN16 [1] = target: T1, CysG^ΔN16 (Kitasatospora cystarginea, UniProt A0A1W6R556); assay: HPLC-MS turnover assay, semi-quantitative; format: biochemical; conditions: 1 mM substrate, 1 mM SAM, 5 μM enzyme, 20 mM divalent metal ion, 50 mM Tris-HCl, 30 °C, 3 h
T1 construct: N-terminal truncation lacking the first 16 residues, His6-SUMO tag removed, E. coli BL21(DE3); electron density for residues 17-229

CysG^fl = target: T2, CysG^fl (Kitasatospora cystarginea, UniProt A0A1W6R556); assay: HPLC-MS turnover assay, semi-quantitative; format: biochemical; conditions: 1 mM substrate, 1 mM SAM, 5 μM enzyme, 20 mM Ca2+, 50 mM Tris-HCl, 30 °C, 3 h
T2 construct: full length, codon-optimised gene, N-terminal His6-SUMO tag removed, E. coli BL21(DE3)

CysG^ΔN16 [2] = target: T3, CysG^ΔN16 (Kitasatospora cystarginea, UniProt A0A1W6R556, R22K); assay: X-ray crystal structure; format: binding; conditions: methyl donor site
T3 construct: N-terminal truncation lacking the first 16 residues, His6-SUMO tag removed, E. coli BL21(DE3); electron density for residues 17-229

BelI = target: T4, BelI (Streptomyces sp., UniProt A0A1W6R583); assay: HPLC-MS turnover assay, semi-quantitative; format: biochemical; conditions: 1 mM substrate, 1 mM SAM, 5 μM enzyme, 20 mM Ca2+, 50 mM Tris-HCl, 30 °C, 3 h
T4 construct: full length, codon-optimised gene, N-terminal His6-SUMO tag removed, E. coli BL21(DE3); electron density for residues 17-228

CysG^ΔN16 [3] = target: T1, CysG^ΔN16; assay: X-ray crystal structure, […] Å; format: binding; conditions: with Ca2+ bound at His122-His123-Asp191; methyl donor site

For CC(C)[C@H](C(=O)O)[C@@H](O)C(=O)O [3IPM], the “HPLC-MS turnover assay, semi-quantitative” value (“HPLC-MS turnover assay” below) (CysG^ΔN16 [1]) was “N-terminally truncated CysG^ΔN16 variant was active with metal ions available” and the “HPLC-MS turnover assay” value (CysG^fl) was “The assay was started by the addition of 3IPM for CysG and 3SBM for BelI”.
For C[S+](CC[C@H](N)C(=O)O)C[C@H]1O[C@@H](n2cnc3c(N)ncnc32)[C@H](O)[C@@H]1O (some centres unmarked) [SAM], the X-ray crystal structure (CysG^ΔN16 [2]) was “CysG^ΔN16-R22K variant (PDB ID: 9FCY) maintains SAM coordination”.
CCC(C)C(C(=O)O)C(O)C(=O)O (centres unmarked) [3SBM] was tested, and the “HPLC-MS turnover assay” value (BelI) was “The assay was started by the addition of 3IPM for CysG and 3SBM for BelI”.
Nc1ncnc2c1ncn2[C@@H]1O[C@H](CSCC[C@H](N)C(=O)O)[C@@H](O)[C@H]1O [SAH] was tested, and the “X-ray crystal structure, 1.5 Å” value (CysG^ΔN16 [3]) was “crystal structures of CysG^ΔN16 in complex with S-adenosylhomocysteine (SAH)”.
